pIC50: −log10 of the molar value.
Legend:
[1] = tested on: RS4; 11Bcl-2-G101V cells; assay: CellTiter-Glo (CTG) cell viability assay in RS4;11-Bcl-2-G101V cells; type: cell-based; conditions: 72 h, 10% FBS, 3 days
Procedure: RS4; 11Bcl-2-G101V, RS4; 11Bcl-2-D103E, RS4; 11Bcl-2-V156D and RS4; 11Bcl-2-G101V-D103E cells were obtained from Cobioer Biosciences. Cells were maintained in the RPMI-1640 medium with 10% FBS, 1% P/S and puromycin (1 μg/mL) at 37° C. and an atmosphere of 5% CO2.
• The effect of representative Compounds of the Disclosure on cell viability was determined using CellTiter-Glo® (CTG) luminescent cell viability assay (Promega, USA) according to the manufacturer's instructions. 95 μL of cell suspension (10000 cells/well) in culture medium were seeded into 96-well plates and cultured 4 hours. Each tested compound was serially diluted in blank culture medium, and 5 μL of the compound dilution was added to the corresponding well of the cell plate. After the addition of the tested compound, the cells were incubated at 37° C. in an atmosphere of 5% CO2 for 3 days. At the end of 3 days, 30 μL of CTG solution was added to each well of the plate and mix contents for 2 minutes on an orbital shaker. Allow the plate to incubate at room temperature for 15 mins to stabilize signal and record RLU on the Biotek plate reader. The readings were normalized to the vehicle cells, and the IC50 was calculated using GraphPad Prism 8 software.

[2] = target: Bcl-2 WT (Homo sapiens, UniProt P10415); assay: Bcl-2 WT inhibition, fluorescence polarization (Flu-BIM tracer) binding assay; conditions: FP; 20 nM Bcl2, 5 nM Flu-BIM, 1 h incubation; read-out: Bcl-2 w.t. (FP)
[3] = tested on: MV-4-11 cells; assay: CCK-8 cell viability assay in MV-4-11 cells; type: cell-based; conditions: Homo sapiens, MV4-11, 72 h, 10% FBS, 3 days
Procedure: MV-4-11 cells were obtained from University of Michigan. Cells were maintained in the RPMI-1640 medium with 10% FBS and 1% P/S at 37° C. and an atmosphere of 5% CO2.
• The effect of representative Compounds of the Disclosure on cell viability was determined using Cell Counting Kit-8 (CCK-8) assay (Shanghai Life iLab Biotech) according to the manufacturer's instructions. Each tested compound was serially diluted in culture medium, and 100 μL of the compound dilution was added to the corresponding well of the cell plate. 100 μL of MV-4-11 cell suspension (20000 cells/well) in culture medium were seeded into 96-well plates. The cells were incubated at 37° C. in an atmosphere of 5% CO2 for 3 days. At the end of 3 days, 20 μL of CCK-8 solution was added to each well of the plate and incubated for 1-4 hours. The plates were read at 450 nm on the Biotek plate reader. The readings were normalized to the vehicle cells, and the IC50 was calculated using GraphPad Prism 8 software.

Sequence of Bcl-2 WT (P10415 whole entry): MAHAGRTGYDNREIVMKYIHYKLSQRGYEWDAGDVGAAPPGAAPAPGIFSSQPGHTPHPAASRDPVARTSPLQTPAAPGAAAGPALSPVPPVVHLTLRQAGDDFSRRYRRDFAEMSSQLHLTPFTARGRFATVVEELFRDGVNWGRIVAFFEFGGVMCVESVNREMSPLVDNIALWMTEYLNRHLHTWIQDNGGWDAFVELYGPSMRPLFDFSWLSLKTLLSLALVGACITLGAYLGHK

Compound	pIC50 [1]	pIC50 [3]	pIC50 [2]
Cc1sccc1C1=C(CN2CCN(c3ccc(C(=O)NS(=O)(=O)c4ccc(NCC5CCOCC5)c([N+](=O)[O-])c4)c(Oc4cnc5[nH]ccc5c4)c3)CC2)CCC(C)(C)C1 [Example 1, 2-((1H-pyrrolo[2,3-b]pyridin-5-yl)oxy)-4-(4-((4,4-dimethyl-2-(2-methylthiophen-3-yl)cyclohex-1-en-1-yl)methyl)piperazin-1-yl)-N-((3-nitro-4-(((tetrahydro-2H-pyran-4-yl)methyl)amino)phenyl)sulfonyl)benzamide]	5.93	7.57	7.80
Cc1cscc1C1=C(CN2CCN(c3ccc(C(=O)NS(=O)(=O)c4ccc(NCC5CCOCC5)c([N+](=O)[O-])c4)c(Oc4cnc5[nH]ccc5c4)c3)CC2)CCC(C)(C)C1 [Example 2, 2-((1H-pyrrolo[2,3-b]pyridin-5-yl)oxy)-4-(4-((4,4-dimethyl-2-(4-methylthiophen-3-yl)cyclohex-1-en-1-yl)methyl)piperazin-1-yl)-N-((3-nitro-4-(((tetrahydro-2H-pyran-4-yl)methyl)amino)phenyl)sulfonyl)benzamide]	5.89	7.55	7.80
CC1(C)CCC(CN2CCN(c3ccc(C(=O)NS(=O)(=O)c4ccc(NCC5CCOCC5)c([N+](=O)[O-])c4)c(Oc4cnc5[nH]ccc5c4)c3)CC2)=C(c2csc(C(F)(F)F)c2)C1 [Example 3, 2-((1H-pyrrolo[2,3-b]pyridin-5-yl)oxy)-4-(4-((4,4-dimethyl-2-(5-(trifluoromethyl)thiophen-3-yl)cyclohex-1-en-1-yl)methyl)piperazin-1-yl)-N-((3-nitro-4-(((tetrahydro-2H-pyran-4-yl)methyl)amino)phenyl)sulfonyl)benzamide]	5.42	6.67	7.56
CC1(C)CCC(CN2CCN(c3ccc(C(=O)NS(=O)(=O)c4ccc(NC[C@H]5COCCO5)c([N+](=O)[O-])c4)c(Oc4cnc5[nH]ccc5c4)c3)CC2)=C(c2cc(Nc3ccc(F)cc3F)cs2)C1 [Example 20, (S)—N-((4-(((1,4-dioxan-2-yl)methyl)amino)-3-nitrophenyl)sulfonyl)-2-((1H-pyrrolo[2,3-b]pyridin-5-yl)oxy)-4-(4-((2-(4-((2,4-difluorophenyl)amino)thiophen-2-yl)-4,4-dimethylcyclohex-1-en-1-yl)methyl)piperazin-1-yl)benzamide]	< 5.00	< 6.00	–
CC1(C)CCC(CN2CCN(c3ccc(C(=O)NS(=O)(=O)c4ccc(NC[C@H]5COCCO5)c([N+](=O)[O-])c4)c(Oc4cnc5[nH]ccc5c4)c3)CC2)=C(c2cc(CN3CC4(C3)CN(S(C)(=O)=O)C4)cs2)C1 [Example 27]	5.98	6.90	–
CC1(C)CCC(CN2CCN(c3ccc(C(=O)NS(=O)(=O)c4ccc(NC[C@H]5COCCO5)c([N+](=O)[O-])c4)c(Oc4cnc5[nH]ccc5c4)c3)CC2)=C(c2cc(-c3c(F)cc(F)c4cc[nH]c34)cs2)C1 [Example 57, (S)—N-((4-(((1,4-dioxan-2-yl)methyl)amino)-3-nitrophenyl)sulfonyl)-2-((1H-pyrrolo[2,3-b]pyridin-5-yl)oxy)-4-(4-((2-(4-(4,6-difluoro-1H-indol-7-yl)thiophen-2-yl)-4,4-dimethylcyclohex-1-en-1-yl)methyl)piperazin-1-yl)benzamide]	5.24	5.92	–

More lines, main results first:

pIC50 [1]	pIC50 [3]	Compound	pIC50 [2]
6.72	8.30	CC1(C)CCC(CN2CCN(c3ccc(C(=O)NS(=O)(=O)c4ccc(NC[C@H]5CC[C@](C)(O)CC5)c([N+](=O)[O-])c4)c(Oc4cnc5[nH]ccc5c4)c3)CC2)=C(c2cc(-c3c(F)cc(F)cc3F)cs2)C1 [Example 47, 2-((1H-pyrrolo[2,3-b]pyridin-5-yl)oxy)-4-(4-((4,4-dimethyl-2-(4-(2,4,6-trifluorophenyl)thiophen-2-yl)cyclohex-1-en-1-yl)methyl)piperazin-1-yl)-N-((4-((((1r,4r)-4-hydroxy-4-methylcyclohexyl)methyl)amino)-3-nitrophenyl)sulfonyl)benzamide]	–
5.30	6.53	CC1(C)CCC(CN2CCN(c3ccc(C(=O)NS(=O)(=O)c4ccc(NC[C@H]5COCCO5)c([N+](=O)[O-])c4)c(Oc4cnc5[nH]ccc5c4)c3)CC2)=C(c2cc(-c3ccc(F)cn3)cs2)C1 [Example 52, (S)—N-((4-(((1,4-dioxan-2-yl)methyl)amino)-3-nitrophenyl)sulfonyl)-2-((1H-pyrrolo[2,3-b]pyridin-5-yl)oxy)-4-(4-((2-(4-(5-fluoropyridin-2-yl)thiophen-2-yl)-4,4-dimethylcyclohex-1-en-1-yl)methyl)piperazin-1-yl)benzamide]	–
5.50	6.97	CC1(C)CCC(CN2CCN(c3ccc(C(=O)NS(=O)(=O)c4ccc(NC[C@H]5CC[C@](C)(O)CC5)c([N+](=O)[O-])c4)c(Oc4cnc5[nH]ccc5c4)c3)CC2)=C(c2cc(C#Cc3ccc(F)cc3)cs2)C1 [Example 61, 2-((1H-pyrrolo[2,3-b]pyridin-5-yl)oxy)-4-(4-((2-(4-((4-fluorophenyl)ethynyl)thiophen-2-yl)-4,4-dimethylcyclohex-1-en-1-yl)methyl)piperazin-1-yl)-N-((4-((((1r,4r)-4-hydroxy-4-methylcyclohexyl)methyl)amino)-3-nitrophenyl)sulfonyl)benzamide]	–
6.22	6.72	Cc1cc(C(C)(C)O)cc(C)c1-c1csc(C2=C(CN3CCN(c4ccc(C(=O)NS(=O)(=O)c5ccc(NC[C@H]6CC[C@](C)(O)CC6)c([N+](=O)[O-])c5)c(Oc5cnc6[nH]ccc6c5)c4)CC3)CCC(C)(C)C2)c1 [Example 65, 2-((1H-pyrrolo[2,3-b]pyridin-5-yl)oxy)-N-((4-((((1r,4r)-4-hydroxy-4-methylcyclohexyl)methyl)amino)-3-nitrophenyl)sulfonyl)-4-(4-((2-(4-(4-(2-hydroxypropan-2-yl)-2,6-dimethylphenyl)thiophen-2-yl)-4,4-dimethylcyclohex-1-en-1-yl)methyl)piperazin-1-yl)benzamide]	–
6.44	6.88	CC1(C)CCC(CN2CCN(c3ccc(C(=O)NS(=O)(=O)c4ccc(NC[C@H]5CC[C@](C)(O)CC5)c([N+](=O)[O-])c4)c(Oc4cnc5[nH]ccc5c4)c3)CC2)=C(c2cc(-c3c(Cl)cc(C(C)(C)O)cc3Cl)cs2)C1 [Example 66, 2-((1H-pyrrolo[2,3-b]pyridin-5-yl)oxy)-4-(4-((2-(4-(2,6-dichloro-4-(2-hydroxypropan-2-yl)phenyl)thiophen-2-yl)-4,4-dimethylcyclohex-1-en-1-yl)methyl)piperazin-1-yl)-N-((4-((((1r,4r)-4-hydroxy-4-methylcyclohexyl)methyl)amino)-3-nitrophenyl)sulfonyl)benzamide]	–
5.77	7.02	COC(C)(C)c1ccc(-c2csc(C3=C(CN4CCN(c5ccc(C(=O)NS(=O)(=O)c6ccc(NC[C@H]7CC[C@](C)(O)CC7)c([N+](=O)[O-])c6)c(Oc6cnc7[nH]ccc7c6)c5)CC4)CCC(C)(C)C3)c2)c(F)c1 [Example 76, 2-((1H-pyrrolo[2,3-b]pyridin-5-yl)oxy)-4-(4-((2-(4-(2-fluoro-4-(2-methoxypropan-2-yl)phenyl)thiophen-2-yl)-4,4-dimethylcyclohex-1-en-1-yl)methyl)piperazin-1-yl)-N-((4-((((1r,4r)-4-hydroxy-4-methylcyclohexyl)methyl)amino)-3-nitrophenyl)sulfonyl)benzamide]	–
6.31	7.60	CC1(C)CCC(CN2CCN(c3ccc(C(=O)NS(=O)(=O)c4ccc(NC[C@H]5CC[C@](C)(O)CC5)c([N+](=O)[O-])c4)c(Oc4cnc5[nH]ccc5c4)c3)CC2)=C(c2cc(-c3c(F)cc(C4(O)CCC4)cc3F)cs2)C1 [Example 77, 2-((1H-pyrrolo[2,3-b]pyridin-5-yl)oxy)-4-(4-((2-(4-(2,6-difluoro-4-(1-hydroxycyclobutyl)phenyl)thiophen-2-yl)-4,4-dimethylcyclohex-1-en-1-yl)methyl)piperazin-1-yl)-N-((4-((((1r,4r)-4-hydroxy-4-methylcyclohexyl)methyl)amino)-3-nitrophenyl)sulfonyl)benzamide]	–
